Reference: patent US12528790B2, “Amide derivative having antiviral activity” (Shionogi & Co., Ltd., priority 2020, dated 2026)

Legend:
[1] = system: RSV B (Wash/18537 strain); assay: In vitro CPE (CytoPathic Effect) inhibition effect evaluation test, RSV type B; type: cell-based; settings: human respiratory syncytial virus, inhibitory effect against RSV type B, CPE inhibition; read-out: EC50
Outline: (§1)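 EC50 is the concentration giving 50% inhibition of virus-induced cytopathic effect, fitted by nonlinear regression from CellTiter-Glo 2.0 viability. Compounds in 3-fold series were co-incubated at 37 °C with HEp-2 cells and RSV: A2 strain for 4 days, B (Wash/18537) for 5 days; uninfected wells served as control.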

RSV A2 strain = assay: In vitro CPE (CytoPathic Effect) inhibition effect evaluation test, RSV type A; type: cell-based; settings: human respiratory syncytial virus; inhibitory effect against RSV type A (RSV A2 strain), HEp-2 cells, CPE inhibition; read-out: EC50
Outline: as §1

Structure (SMILES) | EC50 [1] [nM] | EC50 (RSV A2 strain) [nM]
O=C(NC1(C(=O)O)C2CC3CC(C2)CC1C3)c1cnc(-c2cn(C3CCC(F)(F)CC3)c3cc(O[C@H]4CC[C@H](N5CC(F)(F)C5)CC4)ccc23)nc1C(F)(F)F (some centres unmarked) [Compound I-545] | < 10 | < 10
CC(F)(F)c1nc(-c2cn(C3CCC(F)(F)CC3)c3cc(O[C@H]4CC[C@@H](N5CC(F)(F)C5)CC4)ccc23)ncc1C(=O)NC1(C(=O)O)C2CC3CC(C2)CC1C3 (some centres unmarked) [Compound I-546] | < 10 | < 10
CC(F)(F)c1nc(-c2cn(C3CCOCC3)c3cc(O[C@H]4CC[C@@H](N5CC(F)(F)C5)CC4)ccc23)ncc1C(=O)NC1(C(=O)O)C2CC3CC(C2)CC1C3 (some centres unmarked) [Compound I-547] | < 10 | < 10
CC(F)(F)CN1CCC(Oc2ccc3c(c2)C2(CCOCC2)CN3c2ncc(C(=O)NC3(C(=O)O)C4CC5CC(C4)CC3C5)c(C(C)(F)F)n2)CC1 (centres unmarked) [Compound I-548] | < 10 | < 10
CC(F)(F)c1nc(N2CC3(CCOCC3)c3cc(OC4CCC5(CC4)CN(CC(F)(F)F)C5)ccc32)ncc1C(=O)NC1(C(=O)O)C2CC3CC(C2)CC1C3 (centres unmarked) [Compound I-549] | < 10 | < 10
CC(F)(F)c1nc(N2CC3(CCCCC3)c3cc(OC4CCC5(CC4)CN(CC(F)(F)F)C5)ccc32)ncc1C(=O)NC1(C(=O)O)C2CC3CC(C2)CC1C3 (centres unmarked) [Compound I-550] | 10 to 100 | < 10
CC(F)(F)c1nc(N2CC3(CCOCC3)c3cc(OC4CCN(C5CC(F)(F)C5)CC4)ccc32)ncc1C(=O)NC1(C(=O)O)C2CC3CC(C2)CC1C3 (centres unmarked) [Compound I-551] | < 10 | < 10
CC(F)(F)c1nc(N2CC3(CCOCC3)c3cc(O[C@H]4CC[C@H](NCC(F)(F)F)CC4)ccc32)ncc1C(=O)NC1(C(=O)O)C2CC3CC(C2)CC1C3 (some centres unmarked) [Compound I-552] | < 10 | < 10
CC(F)(F)c1nc(N2CC3(CCOCC3)c3cc(O[C@H]4CC[C@H](Nc5ncc(F)cn5)CC4)ccc32)ncc1C(=O)NC1(C(=O)O)C2CC3CC(C2)CC1C3 (some centres unmarked) [Compound I-553] | 10 to 100 | < 10
CC(F)(F)c1nc(N2CC3(CCOCC3)c3cc(O[C@H]4CC[C@H](N5CC(F)(F)C5)CC4)ccc32)ncc1C(=O)N[C@]1(C(=O)O)[C@@H]2CC3C[C@H]1C[C@@](F)(C3)C2 [Compound I-554] | < 10 | < 10
CC(F)(F)c1nc(N2CC3(CCCCC3)c3cc(O[C@H]4CC[C@H](N5CC(F)(F)C5)CC4)ncc32)ncc1C(=O)NC1(C(=O)O)C2CC3CC(C2)CC1C3 (some centres unmarked) [Compound I-555] | 10 to 100 | < 10
CC(F)(F)c1nc(N2CC3(CCCCC3)c3cc(O[C@H]4CC[C@H](N5CC(F)(F)C5)CC4)ncc32)ncc1C(=O)N[C@]1(C(=O)O)[C@@H]2CC3C[C@H]1C[C@@](F)(C3)C2 [Compound I-556] | 10 to 100 | < 10
CC(F)(F)c1nc(N2CC3(CCCCC3)c3cc(OC4CCN(c5ncc(F)cn5)CC4)ncc32)ncc1C(=O)NC1(C(=O)O)C2CC3CC(C2)CC1C3 (centres unmarked) [Compound I-557] | < 10 | < 10
O=C(NC1(C(=O)O)C2CC3CC(C2)CC1C3)c1cnc(N2CC3(CCCCC3)c3cc(OC4CCN(c5ncc(F)cn5)CC4)ncc32)nc1C(F)(F)F (centres unmarked) [Compound I-558] | < 10 | < 10
CC(F)(F)c1nc(N2CC3(CCOCC3)c3cc(OC4CCN(CC(F)F)CC4)ccc32)ncc1C(=O)NC1(C(=O)O)C2CC3CC(C2)CC1C3 (centres unmarked) [Compound I-559] | < 10 | < 10
CC(F)(F)c1nc(N2CC3(CCOCC3)c3cc(O[C@@H]4CCN(c5ncc(F)cn5)C4)ccc32)ncc1C(=O)NC1(C(=O)O)C2CC3CC(C2)CC1C3 (some centres unmarked) [Compound I-560] | < 10 | < 10
CC(F)(F)c1nc(N2CC3(CCOCC3)c3cc(O[C@@H]4CCN(CC(F)(F)F)C4)ccc32)ncc1C(=O)NC1(C(=O)O)C2CC3CC(C2)CC1C3 (some centres unmarked) [Compound I-561] | < 10 | < 10
CC(F)(F)c1nc(N2CC3(CCOCC3)c3cc(O[C@H]4CC[C@H](c5ncc(F)cn5)CC4)ccc32)ncc1C(=O)NC1(C(=O)O)C2CC3CC(C2)CC1C3 (some centres unmarked) [Compound I-562] | < 10 | < 10
CC(F)(F)c1nc(N2CC3(CCCCC3)c3cc(O[C@H]4CC[C@H](n5ccnn5)CC4)ccc32)ncc1C(=O)NC1(C(=O)O)C2CC3CC(C2)CC1C3 (some centres unmarked) [Compound I-563] | < 10 | < 10
CC(F)(F)c1nc(N2CC3(CCOCC3)c3cc(OC4CCN(C5CSC5)CC4)ccc32)ncc1C(=O)NC1(C(=O)O)C2CC3CC(C2)CC1C3 (centres unmarked) [Compound I-564] | < 10 | < 10
CC(F)(F)c1nc(N2CC3(CCCC3)c3cc(OC4CCN(CC(F)(F)F)CC4)ccc32)ncc1C(=O)NC1(C(=O)O)C2CC3CC(C2)CC1C3 (centres unmarked) [Compound I-565] | < 10 | < 10
O=C(NC1(C(=O)O)C2CC3CC(C2)CC1C3)c1cnc(N2CC3(CCCC3)c3cc(O[C@@H]4CCN(CC(F)(F)F)C4)ccc32)nc1C(F)(F)F (some centres unmarked) [Compound I-566] | < 10 | < 10
